Values quoted from earlier work, collected in patent US20050186168A1, “Skin remodeling and regenerative compositions containing elastin peptide ligands having the amino acid sequence (XGXXPG)n” (priority 2004, published 2005).

What was measured:
Human lymphocytes = details: 1 microgram/ml
pro-MMP-1 = details: for concentration sufficient to stimulate pro-MMP-1 production: fibroblast culture, comparable stimulation levels
[1] = system: elastin-laminin receptor (ELR); details: 5 micrograms/ml (140 micromolar), 10th and 15th passage
MMP-1 mRNA = details: after 24 h of culture; standardized with 36B4 cDNA probe
[2] = 1 mM lactose in fibroblast culture medium

OC[C@H]1O[C@@H](O[C@H]2[C@H](O)[C@@H](O)C(O)O[C@@H]2CO)[C@H](O)[C@@H](O)[C@H]1O (stereo partly shown) [lactose]
elastin peptide-induced cell death (Human lymphocytes): inhibited | accumulation of pro-MMP-3 in the medium (pro-MMP-3; cells treated with 1 mM lactose): decreased | inhibition of VGVAPG-stimulating effect on pro-MMP-1 production (pro-MMP-1; [2]): 80% | inhibition of kE-stimulated pro-MMP-1 production (pro-MMP-1; [2]): 35% | effect on pro-MMP-1 accumulation stimulated by interleukin-1 (pro-MMP-1; lactose alone): no effect

OC[C@H]1O[C@H](OCC2O[C@@H](O)[C@H](O)[C@@H](O)[C@@H]2O)[C@H](O)[C@@H](O)[C@H]1O (stereo partly shown) [melibiose]
elastin peptide-induced cell death (Human lymphocytes): inhibited | fibronectin biosynthesis [1]: decreased | total protein biosynthesis [1]: decreased | incorporation of the tracer in GAGs (human skin fibroblasts): increased | post-synthetic degradation of hyaluronan (human skin fibroblasts): inhibited

interleukin-1 receptor antagonist: interleukin-1 receptor antagonist
blocking of elastin peptide-dependent induction of pro-MMP-1 (pro-MMP-1): could not be blocked

GVAPGV
efficiency of pro-MMP-1 induction relative to VGVAPG (more efficient) (pro-MMP-1; compared with VGVAPG): 20%

LGTIPG
stimulation of MMP-1 expression (pro-MMP-1; laminin-derived peptide): Stimulation of MMP-1 expression could also be achieved

VGVAPG
MMP-1 mRNA levels increased (MMP-1 mRNA): 8 fold | expression of proteins reacting with anti-MMP-3 antibody (pro-MMP-3) (pro-MMP-3; Western blotting, stimulated fibroblasts): significantly up-regulated | pro-MMP-1 induction level (pro-MMP-1): 1 ng/h/10^5 fibroblasts | concentration sufficient to stimulate pro-MMP-1 production (pro-MMP-1): 200 µg/mL

B1: Elastin: extracellular matrix protein elastin (protein, UniProt P15502 27-786, looked up)
Elastin: GGVPGAIPGGVPGGVFYPGAGLGALGGGALGPGGKPLKPVPGGLAGAGLGAGLGAFPAVTFPGALVPGGVADAAAAYKAAKAGAGLGGVPGVGGLGVSAGAVVPQPGAGVKPGKVPGVGLPGVYPGGVLPGARFPGVGVLPGVPTGAGVKPKAPGVGGAFAGIPGVGPFGGPQPGVPLGYPIKAPKLPGGYGLPYTTGKLPYGYGPGGVAGAAGKAGYPTGTGVGPQAAAAAAAKAAAKFGAGAAGVLPGVGGAGVPGVPGAIPGIGGIAGVGTPAAAAAAAAAAKAAKYGAAAGLVPGGPGFGPGVVGVPGAGVPGVGVPGAGIPVVPGAGIPGAAVPGVVSPEAAAKAAAKAAKYGARPGVGVGGIPTYGVGAGGFPGFGVGVGGIPGVAGVPGVGGVPGVGGVPGVGISPEAQAAAAAKAAKYGAAGAGVLGGLVPGAPGAVPGVPGTGGVPGVGTPAAAAAKAAAKAAQFGLVPGVGVAPGVGVAPGVGVAPGVGLAPGVGVAPGVGVAPGVGVAPGIGPGGVAAAAKSAAKVAAKAQLRAAAGLGAGIPGLGVGVGVPGLGVGAGVPGLGVGAGVPGFGAGADEGVRRSLSPELREGDPSSSQHLPSTPSSPRVPGALAAAKAAKYGAAVPGVLGGLGALGGVGIPGGVVGAGPAAAAAAAKAAAKAAQFGLVGAAGLGGLGVGGLGVPGVGGLGGIPPAAAAKAAKYGAAGLGGVLGGAGQFPLGGVAARPGFGLSPIFPGGACLGKACGRKRK
concentration sufficient to stimulate pro-MMP-1 production (pro-MMP-1): 50 µg/mL

B2: tropoelastin: the soluble precursor of elastin (protein, UniProt P15502 27-786, looked up)
Elastin: GGVPGAIPGGVPGGVFYPGAGLGALGGGALGPGGKPLKPVPGGLAGAGLGAGLGAFPAVTFPGALVPGGVADAAAAYKAAKAGAGLGGVPGVGGLGVSAGAVVPQPGAGVKPGKVPGVGLPGVYPGGVLPGARFPGVGVLPGVPTGAGVKPKAPGVGGAFAGIPGVGPFGGPQPGVPLGYPIKAPKLPGGYGLPYTTGKLPYGYGPGGVAGAAGKAGYPTGTGVGPQAAAAAAAKAAAKFGAGAAGVLPGVGGAGVPGVPGAIPGIGGIAGVGTPAAAAAAAAAAKAAKYGAAAGLVPGGPGFGPGVVGVPGAGVPGVGVPGAGIPVVPGAGIPGAAVPGVVSPEAAAKAAAKAAKYGARPGVGVGGIPTYGVGAGGFPGFGVGVGGIPGVAGVPGVGGVPGVGGVPGVGISPEAQAAAAAKAAKYGAAGAGVLGGLVPGAPGAVPGVPGTGGVPGVGTPAAAAAKAAAKAAQFGLVPGVGVAPGVGVAPGVGVAPGVGLAPGVGVAPGVGVAPGVGVAPGIGPGGVAAAAKSAAKVAAKAQLRAAAGLGAGIPGLGVGVGVPGLGVGAGVPGLGVGAGVPGFGAGADEGVRRSLSPELREGDPSSSQHLPSTPSSPRVPGALAAAKAAKYGAAVPGVLGGLGALGGVGIPGGVVGAGPAAAAAAAKAAAKAAQFGLVGAAGLGGLGVGGLGVPGVGGLGGIPPAAAAKAAKYGAAGLGGVLGGAGQFPLGGVAARPGFGLSPIFPGGACLGKACGRKRK
concentration sufficient to stimulate pro-MMP-1 production (pro-MMP-1): 50 µg/mL
